Source: the kinase profiling compilation of Christmann-Franck et al. (2016)

Key:
Assay in all cases: radiometric filter-binding kinase assay
CSNK1G2 (human) = CSNK1G2 (human) (UniProt P78368)
STK24 (human) = STK24 (human) (UniProt Q9Y6E0)
TTBK1 (human) = TTBK1 (human) (UniProt Q5TCY1)
ULK1 (human) = ULK1 (human) (UniProt O75385)
TSSK1B (human) = TSSK1B (human) (UniProt Q9BXA7)
SIK3 (human) = SIK3 (human) (UniProt Q9Y2K2)
STK33 (human) = STK33 (human) (UniProt Q9BYT3)
PRKCG (human) = PRKCG (human) (UniProt P05129)
EIF2AK3 (human) = EIF2AK3 (human) (UniProt Q9NZJ5)
Sequence of EIF2AK3 (human) (Q9NZJ5 whole entry, looked up): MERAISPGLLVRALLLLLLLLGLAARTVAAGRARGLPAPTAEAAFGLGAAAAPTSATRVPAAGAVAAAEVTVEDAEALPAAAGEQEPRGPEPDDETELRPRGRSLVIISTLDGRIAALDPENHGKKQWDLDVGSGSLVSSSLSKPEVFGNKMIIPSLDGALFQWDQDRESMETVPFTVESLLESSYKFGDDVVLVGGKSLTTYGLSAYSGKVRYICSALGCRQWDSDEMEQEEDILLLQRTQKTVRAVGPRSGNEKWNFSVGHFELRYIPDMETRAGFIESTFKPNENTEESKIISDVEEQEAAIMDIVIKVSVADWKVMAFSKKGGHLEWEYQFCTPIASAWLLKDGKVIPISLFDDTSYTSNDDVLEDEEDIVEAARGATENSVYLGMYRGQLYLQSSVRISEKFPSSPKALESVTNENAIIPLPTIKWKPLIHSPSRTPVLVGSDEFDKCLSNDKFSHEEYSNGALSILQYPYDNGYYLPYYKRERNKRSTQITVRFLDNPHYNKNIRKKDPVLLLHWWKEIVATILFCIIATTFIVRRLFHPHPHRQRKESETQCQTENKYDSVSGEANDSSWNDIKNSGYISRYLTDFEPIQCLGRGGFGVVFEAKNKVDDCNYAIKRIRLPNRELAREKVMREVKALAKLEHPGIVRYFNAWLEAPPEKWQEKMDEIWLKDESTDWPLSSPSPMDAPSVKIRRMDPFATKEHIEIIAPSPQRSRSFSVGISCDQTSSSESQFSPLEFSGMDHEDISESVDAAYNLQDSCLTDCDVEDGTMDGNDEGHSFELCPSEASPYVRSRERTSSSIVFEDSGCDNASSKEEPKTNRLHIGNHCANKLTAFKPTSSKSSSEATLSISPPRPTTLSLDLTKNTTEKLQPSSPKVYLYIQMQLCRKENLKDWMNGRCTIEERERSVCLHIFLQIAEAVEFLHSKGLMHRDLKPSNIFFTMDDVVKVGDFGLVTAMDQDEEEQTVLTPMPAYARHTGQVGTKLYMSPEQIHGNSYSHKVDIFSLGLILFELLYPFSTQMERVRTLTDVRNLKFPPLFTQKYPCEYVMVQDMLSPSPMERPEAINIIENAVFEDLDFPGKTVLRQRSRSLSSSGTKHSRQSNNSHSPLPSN

ULK2 (human) = ULK2 (human) (UniProt Q8IYT8)
DDR2 (human) = DDR2 (human) (UniProt Q16832)
TTBK2 (human) = TTBK2 (human) (UniProt Q6IQ55)
GSK3B (human) = GSK3B (human) (UniProt P49841)
SIK2 (human) = SIK2 (human) (UniProt Q9H0K1)
TLK1 (human) = TLK1 (human) (UniProt Q9UKI8)
MAPK7 (human) = MAPK7 (human) (UniProt Q13164)
[1] = system: TGFBR1 (human), P36897 [T204D]
Sequence of TGFBR1 (human), P36897 [T204D] (P36897 whole entry T204D, looked up): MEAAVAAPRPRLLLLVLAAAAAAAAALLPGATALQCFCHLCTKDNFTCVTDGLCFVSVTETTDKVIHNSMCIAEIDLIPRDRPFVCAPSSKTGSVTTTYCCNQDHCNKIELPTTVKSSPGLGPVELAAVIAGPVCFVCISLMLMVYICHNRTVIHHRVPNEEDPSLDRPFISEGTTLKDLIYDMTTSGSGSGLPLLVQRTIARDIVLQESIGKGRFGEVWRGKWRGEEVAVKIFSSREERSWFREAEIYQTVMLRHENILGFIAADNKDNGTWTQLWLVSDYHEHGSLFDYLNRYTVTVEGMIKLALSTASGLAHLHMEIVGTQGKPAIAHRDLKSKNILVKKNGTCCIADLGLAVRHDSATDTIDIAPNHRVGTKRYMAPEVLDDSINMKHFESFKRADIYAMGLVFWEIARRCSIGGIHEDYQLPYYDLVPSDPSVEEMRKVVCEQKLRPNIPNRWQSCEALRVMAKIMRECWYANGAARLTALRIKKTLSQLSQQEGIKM

IRAK1 (human) = IRAK1 (human) (UniProt P51617)
TESK1 (human) = TESK1 (human) (UniProt Q15569)
PDGFRA (human) = PDGFRA (human) (UniProt P16234)
MAP4K3 (human) = MAP4K3 (human) (UniProt Q8IVH8)
Sequence of MAP4K3 (human) (Q8IVH8 whole entry, looked up): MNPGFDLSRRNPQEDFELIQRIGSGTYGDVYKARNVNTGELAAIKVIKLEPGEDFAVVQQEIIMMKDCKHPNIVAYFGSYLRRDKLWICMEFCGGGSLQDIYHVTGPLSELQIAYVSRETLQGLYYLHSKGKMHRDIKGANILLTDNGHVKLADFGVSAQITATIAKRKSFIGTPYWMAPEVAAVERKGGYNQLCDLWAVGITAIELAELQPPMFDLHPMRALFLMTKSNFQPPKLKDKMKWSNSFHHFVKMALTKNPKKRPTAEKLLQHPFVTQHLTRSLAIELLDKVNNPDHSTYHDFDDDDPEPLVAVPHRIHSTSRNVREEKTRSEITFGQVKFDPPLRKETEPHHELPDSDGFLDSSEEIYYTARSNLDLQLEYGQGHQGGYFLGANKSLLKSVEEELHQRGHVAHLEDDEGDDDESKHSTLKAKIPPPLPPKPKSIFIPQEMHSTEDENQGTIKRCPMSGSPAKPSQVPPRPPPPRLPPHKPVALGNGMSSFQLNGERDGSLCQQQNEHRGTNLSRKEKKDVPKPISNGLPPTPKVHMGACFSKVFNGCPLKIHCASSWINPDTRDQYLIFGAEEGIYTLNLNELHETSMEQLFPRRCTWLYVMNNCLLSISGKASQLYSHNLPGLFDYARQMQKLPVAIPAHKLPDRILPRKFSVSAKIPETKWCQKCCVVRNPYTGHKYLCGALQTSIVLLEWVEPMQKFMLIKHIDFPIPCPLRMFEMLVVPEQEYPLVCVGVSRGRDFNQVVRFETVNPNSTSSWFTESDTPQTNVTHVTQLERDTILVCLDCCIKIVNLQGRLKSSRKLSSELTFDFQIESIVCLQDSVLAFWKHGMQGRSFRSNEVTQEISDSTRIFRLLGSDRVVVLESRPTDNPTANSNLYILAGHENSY

ZAP70 (human) = ZAP70 (human) (UniProt P43403)
Sequence of ZAP70 (human) (P43403 whole entry, looked up): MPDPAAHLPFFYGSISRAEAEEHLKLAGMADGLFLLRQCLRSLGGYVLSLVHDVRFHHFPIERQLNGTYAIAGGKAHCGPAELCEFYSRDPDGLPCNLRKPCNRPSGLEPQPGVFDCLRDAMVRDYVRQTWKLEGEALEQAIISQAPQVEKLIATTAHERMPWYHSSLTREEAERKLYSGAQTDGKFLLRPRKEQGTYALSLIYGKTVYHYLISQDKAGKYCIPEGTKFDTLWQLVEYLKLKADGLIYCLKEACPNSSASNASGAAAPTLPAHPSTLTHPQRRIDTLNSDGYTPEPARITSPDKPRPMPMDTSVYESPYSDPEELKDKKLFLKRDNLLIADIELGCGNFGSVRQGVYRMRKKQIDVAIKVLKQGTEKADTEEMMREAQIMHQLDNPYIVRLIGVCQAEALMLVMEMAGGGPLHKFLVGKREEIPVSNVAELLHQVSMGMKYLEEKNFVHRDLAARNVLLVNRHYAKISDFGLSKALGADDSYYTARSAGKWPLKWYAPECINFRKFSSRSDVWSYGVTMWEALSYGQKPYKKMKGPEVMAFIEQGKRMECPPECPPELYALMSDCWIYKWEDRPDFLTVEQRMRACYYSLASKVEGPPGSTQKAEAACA

[2] = system: OXSR1 (human), O95747 [T185E]
SRPK1 (human) = SRPK1 (human) (UniProt Q96SB4)
Sequence of SRPK1 (human) (Q96SB4 whole entry, looked up): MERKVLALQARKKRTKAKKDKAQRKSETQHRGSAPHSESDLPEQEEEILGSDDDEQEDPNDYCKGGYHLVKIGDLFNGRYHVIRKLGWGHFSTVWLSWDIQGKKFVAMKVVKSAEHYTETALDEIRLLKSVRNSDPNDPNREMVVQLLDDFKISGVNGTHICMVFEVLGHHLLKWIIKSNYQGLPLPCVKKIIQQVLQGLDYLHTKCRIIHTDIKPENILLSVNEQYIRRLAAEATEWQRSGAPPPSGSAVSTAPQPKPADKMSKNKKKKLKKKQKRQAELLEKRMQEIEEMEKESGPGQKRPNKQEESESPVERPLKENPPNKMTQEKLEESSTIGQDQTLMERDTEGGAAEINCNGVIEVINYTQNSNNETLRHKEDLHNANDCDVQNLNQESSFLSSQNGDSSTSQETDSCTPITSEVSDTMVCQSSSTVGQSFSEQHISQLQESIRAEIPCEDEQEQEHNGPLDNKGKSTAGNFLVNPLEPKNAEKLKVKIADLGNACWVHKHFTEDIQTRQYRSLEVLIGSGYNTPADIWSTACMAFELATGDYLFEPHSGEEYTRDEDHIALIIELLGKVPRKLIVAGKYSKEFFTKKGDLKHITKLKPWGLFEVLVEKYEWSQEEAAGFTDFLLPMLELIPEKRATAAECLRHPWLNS

PTK6 (human) = PTK6 (human) (UniProt Q13882)
[3] = biological target: PRKAA1 PRKAB2 PRKAG1 (human) (UniProt O43741+Q13131+P54619)
STK16 (human) = STK16 (human) (UniProt O75716)
Sequence of STK16 (human) (O75716 whole entry, looked up): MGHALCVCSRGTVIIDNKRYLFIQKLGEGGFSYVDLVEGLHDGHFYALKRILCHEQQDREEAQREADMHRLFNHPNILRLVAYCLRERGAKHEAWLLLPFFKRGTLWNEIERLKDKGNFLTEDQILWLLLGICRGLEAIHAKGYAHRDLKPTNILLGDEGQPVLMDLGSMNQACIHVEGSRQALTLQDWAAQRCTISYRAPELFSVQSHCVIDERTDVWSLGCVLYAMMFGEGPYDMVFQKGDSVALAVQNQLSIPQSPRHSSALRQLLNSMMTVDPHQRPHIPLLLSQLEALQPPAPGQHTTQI

WNK1 (human) = WNK1 (human) (UniProt Q9H4A3)
MAP4K5 (human) = MAP4K5 (human) (UniProt Q9Y4K4)
Sequence of MAP4K5 (human) (Q9Y4K4 whole entry, looked up): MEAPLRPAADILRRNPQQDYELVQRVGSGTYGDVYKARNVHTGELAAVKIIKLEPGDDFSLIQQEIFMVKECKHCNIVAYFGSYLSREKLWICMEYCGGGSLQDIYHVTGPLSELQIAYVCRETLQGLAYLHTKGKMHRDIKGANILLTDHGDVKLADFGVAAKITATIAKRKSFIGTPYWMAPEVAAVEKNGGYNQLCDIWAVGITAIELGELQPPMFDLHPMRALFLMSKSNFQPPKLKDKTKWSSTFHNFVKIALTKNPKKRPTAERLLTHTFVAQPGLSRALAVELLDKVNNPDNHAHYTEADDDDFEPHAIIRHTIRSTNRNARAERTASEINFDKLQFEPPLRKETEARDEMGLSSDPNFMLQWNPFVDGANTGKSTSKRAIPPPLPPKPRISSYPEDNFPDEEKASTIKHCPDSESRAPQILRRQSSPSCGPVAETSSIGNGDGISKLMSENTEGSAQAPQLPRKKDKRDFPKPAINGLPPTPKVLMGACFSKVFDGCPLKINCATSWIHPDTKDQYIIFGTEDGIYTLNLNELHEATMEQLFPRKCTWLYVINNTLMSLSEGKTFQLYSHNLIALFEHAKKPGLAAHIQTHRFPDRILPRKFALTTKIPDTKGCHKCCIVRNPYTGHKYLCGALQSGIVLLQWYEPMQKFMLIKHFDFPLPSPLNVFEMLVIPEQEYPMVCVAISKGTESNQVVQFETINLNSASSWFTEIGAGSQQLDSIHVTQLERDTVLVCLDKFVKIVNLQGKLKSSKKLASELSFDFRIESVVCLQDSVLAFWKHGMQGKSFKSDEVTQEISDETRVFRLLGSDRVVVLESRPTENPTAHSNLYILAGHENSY

ABL1 (human) = ABL1 (human) (UniProt P00519)
CDK9 CCNT1 (human) = CDK9 CCNT1 (human) (UniProt P50750+O60563); settings: compound 0.1 µM

Compound: Nc1cccc2c1CN(C1CCC(=O)NC1=O)C2=O (configuration not stated)
- residual activity (CSNK1G2 (human); compound 1.0 µM): 99%
- residual activity (CSNK1G2 (human); compound 10.0 µM): 90%
- residual activity (STK24 (human); compound 1.0 µM): 82%
- residual activity (STK24 (human); compound 10.0 µM): 84%
- residual activity (TTBK1 (human); compound 1.0 µM): 106%
- residual activity (TTBK1 (human); compound 10.0 µM): 118%
- residual activity (ULK1 (human); compound 1.0 µM): 104%
- residual activity (ULK1 (human); compound 10.0 µM): 103%
- residual activity (TSSK1B (human); compound 1.0 µM): 89%
- residual activity (TSSK1B (human); compound 10.0 µM): 100%
- residual activity (SIK3 (human); compound 1.0 µM): 91%
- residual activity (SIK3 (human); compound 10.0 µM): 94%
- residual activity (STK33 (human); compound 1.0 µM): 128%
- residual activity (STK33 (human); compound 10.0 µM): 119%
- residual activity (PRKCG (human); compound 1.0 µM): 108%
- residual activity (PRKCG (human); compound 10.0 µM): 112%
- residual activity (EIF2AK3 (human); compound 1.0 µM): 86%
- residual activity (EIF2AK3 (human); compound 10.0 µM): 101%
- residual activity (ULK2 (human); compound 1.0 µM): 106%
- residual activity (ULK2 (human); compound 10.0 µM): 105%
- residual activity (DDR2 (human); compound 1.0 µM): 102%
- residual activity (DDR2 (human); compound 10.0 µM): 102%
- residual activity (TTBK2 (human); compound 10.0 µM): 101%
- residual activity (GSK3B (human); compound 10.0 µM): 92%
- residual activity (SIK2 (human); compound 1.0 µM): 83%
- residual activity (SIK2 (human); compound 10.0 µM): 91%
- residual activity (TLK1 (human); compound 1.0 µM): 95%
- residual activity (TLK1 (human); compound 10.0 µM): 106%
- residual activity (MAPK7 (human); compound 1.0 µM): 98%
- residual activity (MAPK7 (human); compound 10.0 µM): 107%
- residual activity ([1]; compound 1.0 µM): 105%
- residual activity ([1]; compound 10.0 µM): 115%
- residual activity (IRAK1 (human); compound 1.0 µM): 96%
- residual activity (IRAK1 (human); compound 10.0 µM): 101%
- residual activity (TESK1 (human); compound 1.0 µM): 77%
- residual activity (TESK1 (human); compound 10.0 µM): 77%
- residual activity (PDGFRA (human); compound 1.0 µM): 85%
- residual activity (PDGFRA (human); compound 10.0 µM): 82%
- residual activity (MAP4K3 (human); compound 1.0 µM): 100%
- residual activity (MAP4K3 (human); compound 10.0 µM): 110%
- residual activity (ZAP70 (human); compound 1.0 µM): 110%
- residual activity (ZAP70 (human); compound 10.0 µM): 116%
- residual activity ([2]; compound 1.0 µM): 91%
- residual activity ([2]; compound 10.0 µM): 112%
- residual activity (SRPK1 (human); compound 1.0 µM): 104%
- residual activity (SRPK1 (human); compound 10.0 µM): 104%
- residual activity (PTK6 (human); compound 10.0 µM): 114%
- residual activity ([3]; compound 1.0 µM): 106%
- residual activity ([3]; compound 10.0 µM): 102%
- residual activity (STK16 (human); compound 1.0 µM): 98%
- residual activity (STK16 (human); compound 10.0 µM): 100%
- residual activity (WNK1 (human); compound 1.0 µM): 104%
- residual activity (WNK1 (human); compound 10.0 µM): 106%
- residual activity (MAP4K5 (human); compound 1.0 µM): 109%
- residual activity (MAP4K5 (human); compound 10.0 µM): 115%
- residual activity (ABL1 (human); compound 1.0 µM): 96%
- residual activity (ABL1 (human); compound 10.0 µM): 101%

Compound: CN1CCN(CCOc2cc(OC3CCOCC3)c3c(Nc4c(Cl)ccc5c4OCO5)ncnc3c2)CC1
- residual activity (CSNK1G2 (human); compound 0.1 µM): 107%
- residual activity (STK24 (human); compound 0.1 µM): 102%
- residual activity (ULK1 (human); compound 0.1 µM): 99%
- residual activity (TSSK1B (human); compound 0.1 µM): 115%
- residual activity (SIK3 (human); compound 0.1 µM): 92%
- residual activity (STK33 (human); compound 0.1 µM): 105%
- residual activity (PRKCG (human); compound 0.1 µM): 103%
- residual activity (EIF2AK3 (human); compound 0.1 µM): 111%
- residual activity (ULK2 (human); compound 0.1 µM): 109%
- residual activity (DDR2 (human); compound 0.1 µM): 20%
- residual activity (TTBK2 (human); compound 0.1 µM): 94%
- residual activity (GSK3B (human); compound 0.1 µM): 101%
- residual activity (SIK2 (human); compound 0.1 µM): 51%
- residual activity (TLK1 (human); compound 0.1 µM): 107%
- residual activity (CDK9 CCNT1 (human)): 100%
- residual activity (MAPK7 (human); compound 0.1 µM): 90%
- residual activity ([1]; compound 0.1 µM): 90%
- residual activity (IRAK1 (human); compound 0.1 µM): 84%
- residual activity (TESK1 (human); compound 0.1 µM): 94%
- residual activity (PDGFRA (human); compound 0.1 µM): 101%
- residual activity (MAP4K3 (human); compound 0.1 µM): 85%
- residual activity (ZAP70 (human); compound 0.1 µM): 122%
- residual activity ([2]; compound 0.1 µM): 102%
- residual activity (SRPK1 (human); compound 0.1 µM): 82%
- residual activity (PTK6 (human); compound 0.1 µM): 31%
- residual activity ([3]; compound 0.1 µM): 102%
- residual activity (STK16 (human); compound 0.1 µM): 108%
- residual activity (WNK1 (human); compound 0.1 µM): 99%
- residual activity (MAP4K5 (human); compound 0.1 µM): 70%
- residual activity (ABL1 (human); compound 0.1 µM): 26%
